27 compounds from patent US9273057B2 (Bristol-Myers Squibb Company, priority 2012, dated 2016) can be followed below.

CK2A1 (CK2α/β), sequence (P68400 whole entry, species assumed): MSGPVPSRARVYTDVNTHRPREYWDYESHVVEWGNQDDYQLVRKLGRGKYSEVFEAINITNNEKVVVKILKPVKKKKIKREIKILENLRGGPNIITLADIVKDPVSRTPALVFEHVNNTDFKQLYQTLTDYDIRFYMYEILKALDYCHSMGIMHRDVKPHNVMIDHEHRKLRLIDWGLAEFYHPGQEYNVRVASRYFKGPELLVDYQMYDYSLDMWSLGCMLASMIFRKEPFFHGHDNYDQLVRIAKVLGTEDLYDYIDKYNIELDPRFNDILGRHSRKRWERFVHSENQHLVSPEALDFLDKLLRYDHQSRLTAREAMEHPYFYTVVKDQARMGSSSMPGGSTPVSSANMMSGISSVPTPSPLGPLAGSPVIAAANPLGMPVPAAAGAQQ
CK2A1 (CK2α/β), sequence (P67870 whole entry partner, species assumed): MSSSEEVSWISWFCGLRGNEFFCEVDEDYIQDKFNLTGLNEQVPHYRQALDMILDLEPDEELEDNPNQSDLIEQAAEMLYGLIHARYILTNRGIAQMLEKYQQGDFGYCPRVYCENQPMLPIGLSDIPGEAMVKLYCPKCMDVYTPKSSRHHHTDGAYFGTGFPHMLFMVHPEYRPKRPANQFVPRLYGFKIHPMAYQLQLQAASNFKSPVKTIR

The test concerns the target CK2A1 (CK2α/β) (Homo sapiens, UniProt P68400). Briefly: CK2 kinase assay, CK2A1 (CK2α/β). Format: biochemical. The following applies: Table A; read-out: CK2A1 (CK2α/β) (IC50).
As for `N#Cc1cc(Nc2nc(NC3CC3)c3ncc(C#N)n3n2)c(Cl)c(C2(F)COC2)c1` [Example 660, 2-((2-chloro-5-cyano-3-(3-fluorooxetan-3-yl)phenyl)amino)-4-(cyclopropylamino)imidazo[2,1-f][1,2,4]triazine-7-carbonitrile], the IC50 was 0.35 nM. The figure for `C[C@@H](O)CN1CC(N2CCN(c3cc(C#N)cc(Nc4nc(NC5CC5)c5ncc(C#N)n5n4)c3Cl)CC2)C1` [Example 588, 2-{[2-chloro-5-cyano-3-(4-{1-[(2R)-2-hydroxypropyl]azetidin-3-yl}piperazin-1-yl)phenyl]amino}-4-(cyclopropylamino)imidazo [2,1-f][1,2,4]triazine-7-carbonitrile] is 3.08 nM. Consider `N#Cc1cc(Nc2nc(NC3CC3)c3ncc(C#N)n3n2)c(Cl)c(N2CCN(C3(C#N)COC3)CC2)c1` [Example 104, 2-((2-chloro-5-cyano-3-(4-(3-cyano-3-oxetanyl)-1-piperazinyl)phenyl)amino)-4-(cyclopropylamino) imidazo[2,1-f][1,2,4] triazine-7-carbonitrile], for which the IC50 turned out to be 0.7 nM. The figure for `CC(=O)N[C@@H]1CN(c2cc(C#N)cc(Nc3nc(NC4CC4)c4ncc(C#N)n4n3)c2Cl)C[C@H]1O` (racemic) [Example 10, (+/−) N-((3R,4R)-1-(2-chloro-5-cyano-3-((7-cyano-4-(cyclopropylamino)imidazo [2,1-f][1,2,4]triazin-2-yl)amino)phenyl)-4-hydroxy-3-pyrrolidinyl)acetamide] is 0.51 nM. To `N#Cc1cc(Nc2nc(NC3CC3)c3ncc(C#N)n3n2)c(Cl)c(N2CCC3CCN(C4COC4)C3C2)c1` (racemic) [Example 457, (+/−)-2-((2-chloro-5-cyano-3-(1-(oxetan-3-yl)hexahydro-1H-pyrrolo[2,3-c]pyridin-6(2H)-yl)phenyl)amino)-4-(cyclopropylamino)imidazo[2,1-f][1,2,4]triazine-7-carbonitrile] belongs 4.9 nM. As for `COCCN1CC(N2CCN(c3cc(C#N)cc(Nc4nc(NC5CC5)c5ncc(C#N)n5n4)c3Cl)CC2)C1` [Example 61, 2-((2-chloro-5-cyano-3-(4-(1-(2-methoxyethyl)-3-azetidinyl)-1-piperazinyl)phenyl)amino)-4-(cyclopropylamino) imidazo[2,1-f][1,2,4] triazine-7-carbonitrile], the IC50 was 0.96 nM.

For `N#Cc1cc(Nc2nc(NC3CC3)c3ncc(C#N)n3n2)c(Cl)c(N2CCC3(CC2)CN(Cc2ccc[nH]c2=O)C3)c1` [Example 805, 2-((2-chloro-5-cyano-3-(2-((2-oxo-1,2-dihydropyridin-3-yl)methyl)-2,7-diazaspiro[3.5]nonan-7-yl)phenyl)amino)-4-(cyclopropylamino)imidazo[2,1-f][1,2,4]triazine-7-carbonitrile], the IC50 came out at 5.35 nM. With `CCNc1nc(Nc2cc(C#N)cc(C3CN(C(=O)CC#N)C3)c2Cl)nn2c(C#N)cnc12` [Example 369, 2-((2-chloro-5-cyano-3-(1-(2-cyanoacetyl)azetidin-3-yl)phenyl)amino)-4-(ethylamino)imidazo[2,1-f][1,2,4]triazine-7-carbonitrile], the IC50 was found to be 1.58 nM.

As for `CC(=O)NCC(=O)N1CCN(c2cc(C#N)cc(Nc3nc(NC4CC4)c4ncc(C#N)n4n3)c2Cl)CC1` [Example 76, N-(2-(4-(2-chloro-5-cyano-3-((7-cyano-4-(cyclopropylamino)imidazo[2,1-f][1,2,4]triazin-2-yl)amino)phenyl)-1-piperazinyl)-2-oxoethyl)acetamide], the IC50 came out at 0.75 nM.

For `N#Cc1cc(Nc2nc(NC3CC3)c3ncc(C#N)n3n2)c(Cl)c(N2CCC(N[C@H]3COC[C@@H]3O)CC2)c1` (racemic) [Example 135, (+/−) 2-((2-chloro-5-cyano-3-(4-(((3S,4R)-4-hydroxytetrahydro-3-furanyl)amino)-1-piperidinyl)phenyl)amino)-4-(cyclopropylamino)imidazo [2,1-f][1,2,4]triazine-7-carbonitrile], the IC50 was 0.68 nM. To `CC(C)(O)CC1(N2CCN(c3cc(C#N)cc(Nc4nc(NC5CC5)c5ncc(C#N)n5n4)c3Cl)CC2)COC1` [Example 536, 2-((2-chloro-5-cyano-3-(4-(3-(2-hydroxy-2-methylpropyl)oxetan-3-yl)piperazin-1-yl)phenyl)amino)-4-(cyclopropylamino)imidazo[2,1-f][1,2,4]triazine-7-carbonitrile] belongs 1.55 nM; to `N#Cc1cc(Nc2nc(NC3CC3)c3ncc(C#N)n3n2)c(Cl)c([C@H]2CCC[C@@H](N3CC(O)C3)C2)c1` (single isomer, unassigned) [Example 730], 1.22 nM; to `N#Cc1cc(C=O)c(Cl)c(Nc2nc(NC3CC3)c3ncc(C#N)n3n2)c1` [Example 400, 2-((2-chloro-5-cyano-3-formylphenyl)amino)-4-(cyclopropylamino)imidazo[2,1-f][1,2,4]triazine-7-carbonitrile], 0.49 nM. The figure for `CN1CCN(C2CCN(c3cc(C#N)cc(Nc4nc(NC5CC5)c5ncc(C#N)n5n4)c3Cl)CC2)CC1` [Example 12, 2-((2-chloro-5-cyano-3-(4-(4-methyl-1-piperazinyl)-1-piperidinyl)phenyl)amino)-4-(cyclopropylamino)imidazo [2,1-f][1,2,4]triazine-7-carbonitrile] is 1.15 nM; for `N#Cc1cc(Nc2nc(NC3CC3)c3ncc(C#N)n3n2)c(Cl)c(N2CCN(C3COC3)CC2)c1` [Example 105, 2-(2-chloro-5-cyano-3-(4-(oxetan-3-yl)piperazin-1-yl)phenylamino)-4-(cyclopropylamino) imidazo[1,2-f][1,2,4] triazine-7-carbonitrile] it is 0.42 nM; for `N#Cc1cc(Nc2nc(NC3CC3)c3ncc(C#N)n3n2)c(Cl)c(N2CCC(N3CC(F)(F)C3)CC2)c1` [Example 147, 2-((2-chloro-5-cyano-3-(4-(3,3-difluoro-1-azetidinyl)-1-piperidinyl)phenyl)amino)-4-(cyclopropylamino)imidazo [2,1-f][1,2,4]triazine-7-carbonitrile] it is 1.17 nM. To `CN1CCC(N2CC(F)(c3cc(C#N)cc(Nc4nc(NC5CC5)c5ncc(C#N)n5n4)c3Cl)C2)CC1` [Example 658, 2-((2-chloro-5-cyano-3-(3-fluoro-1-(1-methylpiperidin-4-yl)azetidin-3-yl)phenyl)amino)-4-(cyclopropylamino)imidazo[2,1-f][1,2,4]triazine-7-carbonitrile] belongs 2.27 nM. In the case of `CCNc1nc(Nc2cc(C#N)cc(N3CC[C@@H]4[C@@H](C3)OC(=O)N4[C@H]3CCOC3)c2Cl)nn2c(C#N)cnc12` (single isomer, unassigned) [Example 841], the IC50 turned out to be 2.31 nM. As to `N#Cc1cc(Nc2nc(NC3CC3)c3ncc(C#N)n3n2)c(Cl)c(N2CCN(C3CN(C(=O)[C@@H]4C[C@@H](O)CN4)C3)CC2)c1` [Example 498, 2-{[2-chloro-5-cyano-3-(4-{1-[(2S,4R)-4-hydroxypyrrolidine-2-carbonyl]azetidin-3-yl}piperazin-1-yl)phenyl]amino}-4-(cyclopropylamino)imidazo[2,1-f][1,2,4]triazine-7-carbonitrile], the IC50 was found to be 5.48 nM.

For `CN1CCC(N2CC(c3cc(C#N)cc(Nc4nc(NC5CC5)c5ncc(C#N)n5n4)c3Cl)C2)CC1` [Example 357, 2-((2-chloro-5-cyano-3-(1-(1-methylpiperidin-4-yl)azetidin-3-yl)phenyl)amino)-4-(cyclopropylamino)imidazo[2,1-f][1,2,4]triazine-7-carbonitrile], the IC50 is 1.68 nM. Consider `N#Cc1cnc2c(NC3CC3)nc(Nc3cc(C(F)F)cc(N4CCN(C5(CCO)COC5)CC4)c3Cl)nn12` [Example 270, 2-((2-chloro-5-(difluoromethyl)-3-(4-(3-(2-hydroxyethyl)-3-oxetanyl)-1-piperazinyl)phenyl)amino)-4-(cyclopropylamino)imidazo[2,1-f][1,2,4]triazine-7-carbonitrile], for which the IC50 turned out to be 0.82 nM. The figure for `N#Cc1cc(Nc2nc(NC3CC3)c3ncc(C#N)n3n2)c(Cl)c(C2CCN(C3CNC3)CC2)c1` [Example 318, 2-((3-(1-(azetidin-3-yl)piperidin-4-yl)-2-chloro-5-cyanophenyl)amino)-4-(cyclopropylamino)imidazo[2,1-f][1,2,4]triazine-7-carbonitrile] is 0.78 nM; for `N#Cc1cc(Nc2nc(NC3CC3)c3ncc(C#N)n3n2)c(Cl)c(C(O)CN2CCOCC2)c1` (stereo not drawn) [Example 684, 2-((2-chloro-5-cyano-3-(1-hydroxy-2-morpholinoethyl)phenyl)amino)-4-(cyclopropylamino)imidazo[2,1-f][1,2,4]triazine-7-carbonitrile] it is 1.34 nM; for `CCC(CO)(CO)C(=O)N1CC(N2CCN(c3cc(C#N)cc(Nc4nc(NC5CC5)c5ncc(C#N)n5n4)c3Cl)CC2)C1` [Example 524, 2-{[3-(4-{1-[2,2-bis(hydroxymethyl)butanoyl]azetidin-3-yl}piperazin-1-yl)-2-chloro-5-cyanophenyl]amino}-4-(cyclopropylamino)imidazo[2,1-f][1,2,4]triazine-7-carbonitrile] it is 7.45 nM. The figure for `N#Cc1cc(Nc2nc(NC3CC3)c3ncc(C#N)n3n2)c(Cl)c(N2CCC(NCC(O)C(F)(F)F)CC2)c1` (racemic) [Example 139, (+/−) 2-((2-chloro-5-cyano-3-(4-((3,3,3-trifluoro-2-hydroxypropyl)amino)-1-piperidinyl)phenyl)amino)-4-(cyclopropylamino)imidazo [2,1-f][1,2,4]triazine-7-carbonitrile] is 0.45 nM; for `CC(=O)N1CC(N2CCC(O)(c3cc(C#N)cc(Nc4nc(NC5CC5)c5ncc(C#N)n5n4)c3Cl)CC2)C1` [Example 650, 2-((3-(1-(1-acetylazetidin-3-yl)-4-hydroxypiperidin-4-yl)-2-chloro-5-cyanophenyl)amino)-4-(cyclopropylamino)imidazo[2,1-f][1,2,4]triazine-7-carbonitrile] it is 1.09 nM. The figure for `CN1CCCC12CCN(c1cc(C#N)cc(Nc3nc(NC4CC4)c4ncc(C#N)n4n3)c1Cl)C2` (racemic) [Example 25, (+/−) 2-((2-chloro-5-cyano-3-(1-methyl-1,7-diazaspiro[4.4]non-7-yl)phenyl)amino)-4-(cyclopropylamino)imidazo [2,1-f][1,2,4]triazine-7-carbonitrile] is 0.49 nM.
